Our source for the Ki values is patent publication US20230174484A1, “ANTAGONISTS OF GPR39 PROTEIN” (Oregon Health & Science University, priority 2020, published 2023).

The target in the test is T1, human GPR39 receptor (Homo sapiens, UniProt O43194).
T1 construct: PC3 Cells, Expressing the Endogenous Human GPR39 Receptor; endogenous in cells; host or cells: PC3 (human prostate adenocarcinoma) cells
T1 sequence (O43194 1-453): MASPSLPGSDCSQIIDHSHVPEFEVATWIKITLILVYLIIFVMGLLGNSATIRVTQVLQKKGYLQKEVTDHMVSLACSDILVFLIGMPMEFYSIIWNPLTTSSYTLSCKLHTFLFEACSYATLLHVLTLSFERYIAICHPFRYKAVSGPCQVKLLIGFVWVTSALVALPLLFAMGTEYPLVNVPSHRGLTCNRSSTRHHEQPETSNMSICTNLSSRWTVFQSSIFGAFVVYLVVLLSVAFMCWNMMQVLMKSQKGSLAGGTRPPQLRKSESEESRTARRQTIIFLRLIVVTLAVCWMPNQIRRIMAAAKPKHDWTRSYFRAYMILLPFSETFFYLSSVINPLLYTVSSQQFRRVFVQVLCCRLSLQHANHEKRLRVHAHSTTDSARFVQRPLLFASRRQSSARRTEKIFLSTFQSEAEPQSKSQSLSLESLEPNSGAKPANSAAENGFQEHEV
Description: Measurement of intracellular calcium response in PC3 cells (FLIPR), antagonism of the C3 agonist response. The following applies: functional pKi (modified Cheng-Prusoff), inhibition of the C3 (TC-G 1008) response at EC90, 30 μM ZnCl2, read-out: fpKi activity. The test is classed as cell-based. A digest of the protocol: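 Potency was reported as fpKi, converted by modified Cheng-Prusoff from four-parameter IC50 fits against an EC90 C3 agonist challenge. Calcium-6 FLIPR readings used PC3 cells naturally expressing human GPR39, in pH 7.4 HEPES buffer containing 30 μM final ZnCl2. Score bands: +/± <5.2, + 5.2–5.9, ++ 6.0–6.5, +++ 6.6–7.2, ++++ ≥7.3.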
(In general: A change in cytosolic calcium serves as a functional read-out for many receptors and channels.)
Turning to `CN1CCN(C(=O)c2ccc(-c3nnc(C4CC4)[nH]3)cc2N2CCCC2)C(c2ccccc2)C1` (single isomer, unassigned) [Example 151a, (2R or 2S) [4-(5-cyclopropyl-4H-1,2,4-triazol-3-yl)-2-pyrrolidin-1-ylphenyl]-(4-methyl-2-phenylpiperazin-1-yl)methanone], the Ki is 63.1 to 251 nM.

As for `C[C@@H]1C[C@@H](C)CN(c2cc(NC(=O)C3CC3)ccc2-c2ncc3n2CCN(C)C3)C1` (relative stereo) [Example 104a, N-[3-(3,5-dimethylpiperidin-1-yl)-4-(7-methyl-6,8-dihydro-5H-imidazo[1,5-a]pyrazin-3-yl)phenyl] cyclopropanecarboxamide], the Ki was 316 to 1000 nM.

For `CCCC1CCN(C(=O)c2ccc(NC(=O)C3CC3)cc2N2CCCCCC2)CC1` [Example 47, N-(3-(azepan-1-yl)-4-(4-propylpiperidine-1-carbonyl)phenyl)cyclopropanecarboxamide], the Ki is 63.1 to 251 nM.

On to `CCOC1CCN(C(=O)c2ccc(NC(=O)C3CC3)cc2N2CCCCCC2)CC1` [Example 48, N-(3-(azepan-1-yl)-4-(4-ethoxypiperidine-1-carbonyl)phenyl)cyclopropanecarboxamide], for which the Ki was 316 to 1000 nM.

In the case of `CN1CCN(C(=O)c2ccc(NC(=O)C3CC3)cc2N2CCCC2)C(c2ccc(Cl)cc2)C1` (racemic) [Example 176, N-[4-[2-(4-chlorophenyl)-4-methylpiperazine-1-carbonyl]-3-pyrrolidin-1-ylphenyl]cyclopropanecarboxamide], the Ki was 316 to 1000 nM.

For the molecule `CC1CCN(c2cc(NC(=O)C3CC3)ccc2C(=O)N2CCN(C)CC2c2ccccc2)C1` (single isomer, unassigned) [Example 64a, (2S, 3R) or (2R, 3S) or (2R, 3R) or (2S, 3S) N-[4-(4-methyl-2-phenylpiperazine-1-carbonyl)-3-(3-methylpyrrolidin-1-yl)phenyl] cyclopropanecarboxamide], the Ki is not above 50.1 nM.

Turning to `CN1CCN(C(=O)c2ccc(NC(=O)C3CC3)cc2N2CCC(C(F)(F)F)C2)C(c2ccccc2)C1` (single isomer, unassigned) [Example 199d, (2S, 3R) or (2R, 3S) or (2R, 3R) or (2S, 3S) N-[4-(4-methyl-2-phenylpiperazine-1-carbonyl)-3-[3-(trifluoromethyl)pyrrolidin-1-yl]phenyl]cyclopropanecarboxamide], the Ki was in the range of 316 to 1000 nM.

On to `O=C(Nc1ccc(C(=O)N2CCn3cccc3C2)c(N2CCCCCC2)c1)C1CC1` [Example 39, N-(3-(azepan-1-yl)-4-(1,2,3,4-tetrahydropyrrolo[1,2-a]pyrazine-2-carbonyl)phenyl) cyclopropane carboxamide], for which the Ki lay within 63.1 to 251 nM.

Regarding `CN1CCN(C(=O)c2ccc(NC(=O)C3CC3)cc2N2CCCCCC2)C(c2ccccn2)C1` (stereo not shown) [Example 74, N-[3-(azepan-1-yl)-4-(4-methyl-2-pyridin-2-ylpiperazine-1-carbonyl)phenyl]cyclopropanecarboxamide], the Ki lay within 1260 to 6310 nM.

For the molecule `CN1CCN(C(=O)c2ccc(NC(=O)C3CC3)cc2N2CCC(C(F)(F)F)C2)C(c2ccccc2)C1` (single isomer, unassigned) [Example 199b, (2S, 3R) or (2R, 3S) or (2R, 3R) or (2S, 3S) N-[4-(4-methyl-2-phenylpiperazine-1-carbonyl)-3-[3-(trifluoromethyl)pyrrolidin-1-yl]phenyl]cyclopropanecarboxamide], the Ki is 316 to 1000 nM.

For `Cc1nnc(-c2ccc(C(=O)N3CCN(C)CC3c3ccccc3)c(N3CCC(C(F)(F)F)C3)c2)[nH]1` (single isomer, unassigned) [Example 177b, (2S, 3R) or (2R, 3S) or (2R, 3R) or (2S, 3S) (4-methyl-2-phenylpiperazin-1-yl)-[4-(5-methyl-4H-1,2,4-triazol-3-yl)-2-[3-(trifluoromethyl)pyrrolidin-1-yl]phenyl]methanone], the Ki is 316 to 1000 nM.

For `CCCN1CCN(C(=O)c2ccc(NC(=O)c3ccccc3)cc2N2CCCCCC2)CC1` [Example 91, N-(3-(azepan-1-yl)-4-(4-propylpiperazine-1-carbonyl)phenyl)benzamide], the Ki was 1260 to 6310 nM.

In the case of `CC1CC(C)CN(c2cc(NC(=O)C3CC3)ccc2C(=O)N2CCN(C)CC2c2ccccc2)C1` (single isomer, unassigned) [Example 68e, Anti N-[3-[3,5-dimethylpiperidin-1-yl]-4-(4-methyl-2-phenylpiperazine-1-carbonyl)phenyl]cyclopropanecarboxamide], the Ki lay in the range of 63.1 to 251 nM.

Turning to `CCCN1CCN(C(=O)c2ccc(NC(=O)C3CC3)cc2N2CCCCC2)CC1` [Example 19, N-(3-(piperidin-1-yl)-4-(4-propylpiperazine-1-carbonyl)phenyl)cyclopropanecarboxamide], the Ki was 316 to 1000 nM.

As for `O=C(Nc1ccc(C(=O)N2CCOC(C(F)(F)F)C2)c(N2CCCC2)c1)C1CC1` (stereo not shown) [Example 166, N-[3-pyrrolidin-1-yl-4-[2-(trifluoromethyl)morpholine-4-carbonyl]phenyl]cyclopropanecarboxamide], the Ki fell in the range of 1260 to 6310 nM.

`O=C(Nc1ccc(C(=O)N2CCCCC2)c(N2CCCCCC2)c1)C1CC1` [Example 35, N-(3-(azepan-1-yl)-4-(piperidine-1-carbonyl)phenyl)cyclopropanecarboxamide]: the Ki is 63.1 to 251 nM.

As to `CC1CC(C)CN(c2cc(NC(=O)C3CC3)ccc2C(=O)N2CCN(C)CC2c2ccccc2)C1` (single isomer, unassigned) [Example 68a, Syn 2R or 2S N-[3-[3,5-dimethylpiperidin-1-yl]-4-(4-methyl-2-phenylpiperazine-1-carbonyl)phenyl] cyclopropanecarboxamide], the Ki was not above 50.1 nM.

As to `CC1CCN(c2cc(NC(=O)C3CC3)ccc2C(=O)N2CCN(C)CC2c2ccccc2)C1` (single isomer, unassigned) [Example 64d, (2S, 3R) or (2R, 3S) or (2R, 3R) or (2S, 3S) N-[4-(4-methyl-2-phenylpiperazine-1-carbonyl)-3-(3-methylpyrrolidin-1-yl)phenyl] cyclopropanecarboxamide], the Ki fell in the range of 316 to 1000 nM.

For `O=C(Nc1ccc(C(=O)N2CCN(c3ccncc3)CC2)c(N2CCCCCC2)c1)C1CC1` [Example 57, N-[3-(azepan-1-yl)-4-(4-pyridin-4-ylpiperazine-1-carbonyl)phenyl]cyclopropanecarboxamide], the Ki is 1260 to 6310 nM.

In the case of `O=C(Nc1ccc(C(=O)N2CCN(Cc3ccon3)CC2c2ccccc2)c(N2CCCCCC2)c1)C1CC1` (stereo not shown) [Example 82, N-[3-(azepan-1-yl)-4-[4-(1,2-oxazol-3-ylmethyl)-2-phenylpiperazine-1-carbonyl]phenyl]Cyclopropanecarboxamide], the Ki is not above 50.1 nM.

As to `COc1ccc(CN2CCN(C(=O)c3ccc(NC(=O)C4CC4)cc3N3CCCCCC3)CC2)cc1` [Example 30, N-(3-(azepan-1-yl)-4-(4-(4-methoxybenzyl)piperazine-1-carbonyl)phenyl) cyclopropanecarboxamide], the Ki was 316 to 1000 nM.

Consider `CN1CCN(C(=O)c2ccc(NC(=O)C3CC3)cc2N2CCC3(CCC3)C2)C(c2cccs2)C1` (racemic) [Example 85, N-[3-(6-azaspiro[3.4]octan-6-yl)-4-(4-methyl-2-thiophen-2-ylpiperazine-1-carbonyl)phenyl]Cyclopropanecarboxamide], for which the Ki is not above 50.1 nM.

As for `CN1CCN(C(=O)c2ccc(NC(=O)C3CC3)cc2N2CCOCC2)C(c2ccccc2)C1` (stereo not shown) [Example 200, N-[4-(4-methyl-2-phenylpiperazine-1-carbonyl)-3-morpholin-4-ylphenyl]cyclopropanecarboxamide], the Ki is 1260 to 6310 nM.

On to `O=C(Nc1ccc(C(=O)N2CCC(F)CC2)c(N2CCCC2)c1)C1CC1` [Example 168, N-[4-(4-fluoropiperidine-1-carbonyl)-3-pyrrolidin-1-ylphenyl]cyclopropanecarboxamide], for which the Ki lay in the range of 316 to 1000 nM.

On to `O=C(Nc1ccc(C(=O)N2CCC3(CC2)CC3)c(N2CCCC2)c1)C1CC1` [Example 220, N-[4-(6-azaspiro[2.5]octane-6-carbonyl)-3-pyrrolidin-1-ylphenyl]cyclopropanecarboxamide], for which the Ki is 63.1 to 251 nM.

For `O=C(Nc1ccc(C(=O)N2CCC3(CC2)COC3)c(N2CCCC2)c1)C1CC1` [Example 219, N-[4-(2-oxa-7-azaspiro[3.5]nonane-7-carbonyl)-3-pyrrolidin-1-ylphenyl]cyclopropanecarboxamide], the Ki lay in the range of 63.1 to 251 nM.

As for `CCCN1CCN(C(=O)c2ccc(NC(C)=O)cc2N2CCCCCC2)CC1` [Example 95, N-(3-(azepan-1-yl)-4-(4-propylpiperazine-1-carbonyl)phenyl)acetamide], the Ki was in the range of 1260 to 6310 nM.

On to `CC1CCN(c2cc(NC(=O)C3CC3)ccc2C(=O)N2CCN(C)CC2c2ccccc2)C1` (single isomer, unassigned) [Example 64c, (2S, 3R) or (2R, 3S) or (2R, 3R) or (2S, 3S) N-[4-(4-methyl-2-phenylpiperazine-1-carbonyl)-3-(3-methylpyrrolidin-1-yl)phenyl] cyclopropanecarboxamide], for which the Ki is not above 50.1 nM.
